20 compounds from patent publication US7981893B2, “Heteroaryl compounds, compositions thereof, and methods of treatment therewith” (Signal Pharmaceuticals, LLC, priority 2006, dated 2011) can be followed below.

For orientation: IC50 means the concentration that inhibits the measured activity by half.

Common to all, as to type: biochemical
In one test the target is T1, PKCθ (Homo sapiens, UniProt Q04759).
T1 construct: purchased Invitrogen
The test is described as follows: PKCθ IMAP Assay. The note with it: IMAP fluorescence polarization screening assay, 35 μM ATP. The essentials:
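IMAP fluorescence polarization with 0.5 nM PKCθ, 100 nM FAM-AKRRRLSSLRA, 35 μM ATP, 2.5% DMSO, pH 7.6 HEPES with phosphatidyl serine/diacylglycerol. Compound pre-incubated with enzyme 45 min; reaction 60 min, then binding beads ≥30 min before FP read.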
(Polarisation of emitted light reports the rotation of a fluorescent probe.)

In the next test the target is T2, Syk (Homo sapiens, UniProt P43405).
T2 construct: purchased Carna Biosciences 08-176
Nature of the test: Syk HTRF Assay. The settings on record: HTRF screening assay. How it is done: 5 μl/well DMSO is added to Column 2 Wells A-O and 29.5 μl to well P2 of Greiner 384-well polypropylene plate. 20 μl/well DMSO is added to Columns 1 and 3-12.
25 mM compound solutions are prepared by the addition of 25 μl of 30 mM compound to Column 2 and 0.5 μl 30 mM reference control to well P2.
Serial dilution is then performed by the following steps: (i) compounds in Column 2 are mixed by pipetting 20 μl up and down 6×; (ii) 10 μl/well compounds in DMSO are transferred from one column to the next column for Columns 2-11; (iii) wells are mixed by pipetting 20 μl up and down 6×; (iv) tips washed 3×25 μl DMSO, 2×25 μl next DMSO.
The following buffers are prepared:
Dilution Buffer: 50 mM HEPES pH 7.6; 1 mM DTT; 10 mM MgCl2; 0.01% Triton X100; 0.01% BSA; 0.1 mM EDTA.
Enzyme Mix in Dilution Buffer: 8.621 ng/ml Syk (Carna Biosciences 08-176).
Start Mix in Dilution Buffer: 87.5 μM ATP; 80 nM Substrate Peptide (American Peptide Company 332722).
14.5 μl/well Enzyme Mix or Dilution Buffer (Background Controls) is added to Costar 384-well black plates.
Compound addition and mixture is performed by the following steps: (i) 0.5 μl/well DMSO/compounds in DMSO transferred from Greiner 384-well polypropylene plate to left half of assay plate containing 14.5 μl/well Enzyme Mix and Dilution Buffer; (ii) Mix by pipetting 10 μl up and down 4×; (iii) tips are washed 4×10 μl in DMSO, 2×20 μl in other DMSO; (iv) steps i-iii are repeated with transfer to right half of assay plate; (v) steps i-iv are repeated with each compound/assay plate until all plates are completed.
10 μl/well Start Mix is added and incubated at room temperature on shaker for 2 minutes (1 hour total reaction time).
Stop Solution in Dilution Buffer: 120 mM EDTA
Antibody Mix in Dilution Buffer: 4.86 μg/ml DyLight 647 Streptavidin (Pierce 21824); 1 μg/ml Lance Eu-Anti-Phosphotyrosine (PerkinElmer AD0069).
5 μl/well[…] is added and incubated at room temperature on shaker for 2 minutes.
[…] Antibody Mix is added and Incubated at room temperature on shaker for 2 minutes (4 hours to overnight total time).
Plates are read at 665 nm and 620 nm emission on Analyst GT protocol HTRF_SP_A or EnVision protocol Steve's TR-FRET.
On the technique in general: TR-FRET usually uses a lanthanide donor and a delayed reading to cut background.

Another test concerns the target T3, mTOR (Homo sapiens, UniProt P42345).
T3 construct: Dilute TOR fraction 1:14 in “Simple TOR Buffer”
The test is described as follows: mTOR HTR-FRET Assay. The settings on record: HTR-FRET screening assay, GST-p70S6 kinase fragment substrate. Here is the method:
The following is an example of an assay that can be used to determine the mTOR inhibitory activity of a test compound. Reagents are prepared as follows:
“Simple TOR buffer” (used to dilute high glycerol TOR fraction): 10 mM Tris pH 7.4, 100 mM NaCl, 0.1% Tween-20, 1 mM DTT (from 1M stock frozen at −20° C. just prior to use). For convenience a large quantity of “Simple TOR buffer” w/o DTT can be stored at 4° C. It can be brought to room temperature and DTT added just prior to dilution of TOR fraction.
5×KB/5×Mn/5×ATP solution (used to dilute substrate GST-p70S6kin 81 a.a. just prior to use) (40 ml screen quantity shown):
Enzyme solution: Dilute TOR fraction 1:14 in “Simple TOR Buffer”. For current lot that is 640 μg/ml TOR fraction diluted 14× to yield 45.7 μg/ml TOR in buffer (i.e. 7.85 ml TOR pooled fraction+102.1 ml Simple TOR buffer=110 ml 14× diluted TOR fraction). Each Enzyme Lot must be QC'd prior to assay.
Substrate solution: This may be prepared just prior to assay if preferred. Dilute 5.3 mg/ml GST-p70S6kinase fragment stock to 3.5 μg/ml (97 nM) working stock in 5×KB/5×Mn/5×ATP solution (i.e. 26.41 μL (5.3 mg/ml) GST-p70S6+40 ml 5×KB/5×Mn/5×ATP=40 ml 3.5 μg/ml (97 nM)).
Assay Buffer (for dilution of Antibodies used in Antibody Detection Reagent):
Antibody Detection Reagent (this reagent should be made just prior to addition to Assay Plates):
Using PlateTrak program (Screen) or Matrix Pipettor (SAR), 19.5 μL of diluted TOR fraction is added to assay plate in all test, reference or positive control wells. 19.5 μL of “Simple TOR buffer” is added to all negative control wells. If treating multiple plates with the same compounds, can increase volume of enzyme to multiples of 19.5 μL in a tall 384 well polypropylene plate.
Using EP3, 0.5 μl of test, reference or control DMSO is added to each well with mixing. Plates are incubated for 30 minutes at room temperature.
Using PlateTrak program (Screen) or Matrix Pipettor (SAR) 5 μL of 5×KB/5×Mn/5×ATP/5× substrate solution is added to each well of the assay plate to start the reaction. The solutions are mixed well and incubated for 2 hours at room temperature.
Using PlateTrak program (Screen) or Matrix Pipettor (SAR) 5 μL of 60 mM EDTA is added to stop the reaction. The solutions are mixed well and allowed to sit for 15-20 minutes before the next step.
Using PlateTrak program (Screen) or Matrix Pipettor (SAR) 10 μl of Antibody Detection Reagent is added. The solutions are mixes well and incubated for 5 hours to O/N to allow antibodies to form complexes with phosphorylated substrate.
Plates are read on AnalystHT using protocol Multi-Method protocol.

T1 sequence (Q04759 whole entry): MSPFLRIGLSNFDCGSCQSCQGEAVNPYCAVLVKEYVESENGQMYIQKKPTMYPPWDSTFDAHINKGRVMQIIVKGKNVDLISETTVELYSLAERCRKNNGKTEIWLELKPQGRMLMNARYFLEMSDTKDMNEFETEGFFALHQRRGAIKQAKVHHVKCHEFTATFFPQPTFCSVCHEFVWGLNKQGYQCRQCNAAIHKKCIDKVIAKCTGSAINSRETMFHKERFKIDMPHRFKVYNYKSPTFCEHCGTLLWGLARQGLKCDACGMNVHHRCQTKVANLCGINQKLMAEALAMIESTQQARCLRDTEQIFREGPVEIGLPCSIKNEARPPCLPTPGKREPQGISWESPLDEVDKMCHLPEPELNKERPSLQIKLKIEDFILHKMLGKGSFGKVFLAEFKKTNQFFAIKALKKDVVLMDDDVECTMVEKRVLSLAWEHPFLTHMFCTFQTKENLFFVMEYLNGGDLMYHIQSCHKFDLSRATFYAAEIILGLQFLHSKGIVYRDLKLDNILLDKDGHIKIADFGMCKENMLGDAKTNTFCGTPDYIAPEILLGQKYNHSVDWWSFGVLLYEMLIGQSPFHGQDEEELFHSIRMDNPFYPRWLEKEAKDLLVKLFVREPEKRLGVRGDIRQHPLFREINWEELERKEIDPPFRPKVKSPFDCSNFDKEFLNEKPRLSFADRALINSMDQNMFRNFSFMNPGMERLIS

Take `CC(C)[C@@H](CO)n1c(=O)[nH]c2ncc(-c3ccccc3)nc21` [Compound 1, (S)-1-(1-hydroxy-3-methylbutan-2-yl)-6-phenyl-1H-imidazo[4,5-b]pyrazin-2(3H)-one]: the IC50 against PKCθ and against Syk was above 30 µM each time.

On to `COc1ccc(C(C)C)cc1-c1cnc2[nH]c(=O)n([C@H](CO)C(C)C)c2n1` [Compound 8, (S)-1-(1-hydroxy-3-methylbutan-2-yl)-6-(5-isopropyl-2-methoxyphenyl)-1H-imidazo[4,5-b]pyrazin-2(3H)-one], for which the 50% inhibitory concentration (IC50) against PKCθ and at Syk was 0.1 to 5 µM each time.

Turning to `CC(c1ccccc1F)n1c(=O)[nH]c2ncc(-c3cccc4ncccc34)nc21` (stereo not shown) [Compound 51, 1-(1-(2-fluorophenyl)ethyl)-6-(quinolin-5-yl)-1H-imidazo[4,5-b]pyrazin-2(3H)-one], the 50% inhibitory concentration (IC50) against mTOR and on PKCθ was 5.1 to 10 µM each time.

Regarding `CC(c1ccc(F)cc1)n1c(=O)[nH]c2ncc(-c3cccc4ncccc34)nc21` (stereo not shown) [Compound 52, 1-(1-(4-fluorophenyl)ethyl)-6-(quinolin-5-yl)-1H-imidazo[4,5-b]pyrazin-2(3H)-one], the IC50 on mTOR is 5.1 to 10 µM; against PKCθ, 0.1 to 5 µM.

With `O=c1[nH]c2ncc(-c3cccc4ncccc34)nc2n1C1CCCC1` [Compound 53, 1-cyclopentyl-6-(quinolin-5-yl)-1H-imidazo[4,5-b]pyrazin-2(3H)-one], the IC50 against mTOR is 5.1 to 10 µM; against PKCθ, above 30 µM.

On to `CC(c1cccc(F)c1)n1c(=O)[nH]c2ncc(-c3cccc4ncccc34)nc21` (stereo not shown) [Compound 54, 1-(1-(3-fluorophenyl)ethyl)-6-(quinolin-5-yl)-1H-imidazo[4,5-b]pyrazin-2(3H)-one], for which the figures for the half-maximal inhibitory concentration (IC50) against mTOR and against PKCθ were 5.1 to 10 µM and 0.1 to 5 µM, respectively.

As for `COc1cccc(C(C)n2c(=O)[nH]c3ncc(-c4cccc5ncccc45)nc32)c1` (stereo not shown) [Compound 55, 1-(1-(3-methoxyphenyl)ethyl)-6-(quinolin-5-yl)-1H-imidazo[4,5-b]pyrazin-2(3H)-one], the IC50 is 5.1 to 10 µM against mTOR and 0.1 to 5 µM against PKCθ.

As to `COc1ccc(C(C)n2c(=O)[nH]c3ncc(-c4cccc5ncccc45)nc32)cc1` (stereo not shown) [Compound 56, 1-(1-(4-methoxyphenyl)ethyl)-6-(quinolin-5-yl)-1H-imidazo[4,5-b]pyrazin-2(3H)-one], the half-inhibitory concentration (IC50) was above 30 µM against mTOR and 0.1 to 5 µM at PKCθ.

For `O=c1[nH]c2ncc(-c3cccc4ncccc34)nc2n1C1CCOCC1` [Compound 57, 6-(quinolin-5-yl)-1-(tetrahydro-2H-pyran-4-yl)-1H-imidazo[4,5-b]pyrazin-2(3H)-one], the IC50 at mTOR and against PKCθ was above 30 µM in each case.

On to `O=c1[nH]c2ncc(-c3cccc4ncccc34)nc2n1C1CCCOC1` (stereo not shown) [Compound 58, 6-(quinolin-5-yl)-1-(tetrahydro-2H-pyran-3-yl)-1H-imidazo[4,5-b]pyrazin-2(3H)-one], for which the IC50 against mTOR is 10.1 to 20 µM; against PKCθ it was above 30 µM.

For `O=c1[nH]c2ncc(-c3cccc4ncccc34)nc2n1C1CCC(O)CC1` (stereo not shown) [Compound 59, 1-((1s,4s)-4-hydroxycyclohexyl)-6-(quinolin-5-yl)-1H-imidazo[4,5-b]pyrazin-2(3H)-one], the IC50 against mTOR and on PKCθ was 10.1 to 20 µM in each case.

On to `O=c1[nH]c2ncc(-c3cccc4ncccc34)nc2n1C1CCC(O)CC1` (stereo not shown) [Compound 60, 1-((1r,4r)-4-hydroxycyclohexyl)-6-(quinolin-5-yl)-1H-imidazo[4,5-b]pyrazin-2(3H)-one], for which the IC50 at mTOR was above 30 µM; at PKCθ, 20.1 to 30 µM.

`CC(c1ccccc1)n1c(=O)[nH]c2ncc(-c3cccc4cnccc34)nc21` (stereo not shown) [Compound 61, 6-(isoquinolin-5-yl)-1-(1-phenylethyl)-1H-imidazo[4,5-b]pyrazin-2(3H)-one]: the IC50 lay within 5.1 to 10 µM on mTOR and 10.1 to 20 µM against PKCθ.

Take `CC(C)n1c(=O)[nH]c2ncc(-c3cccc4ncccc34)nc21` [Compound 64, 1-isopropyl-6-(quinolin-5-yl)-1H-imidazo[4,5-b]pyrazin-2(3H)-one]: the IC50 against mTOR was in the range of 5.1 to 10 µM; against PKCθ it was 20.1 to 30 µM.

Take `CC(c1ccc(Cl)cc1)n1c(=O)[nH]c2ncc(-c3cccc4ncccc34)nc21` (stereo not shown) [Compound 65, 1-(1-(4-chlorophenyl)ethyl)-6-(quinolin-5-yl)-1H-imidazo[4,5-b]pyrazin-2(3H)-one]: the 50% inhibitory concentration (IC50) fell in the range of 5.1 to 10 µM on mTOR and 0.1 to 5 µM against PKCθ.

Turning to `Cc1nc2[nH]c(=O)n([C@@H](C)c3ccccc3)c2nc1-c1cccc2ncccc12` [Compound 68, 5-methyl-1-((S)-1-phenylethyl)-6-(quinolin-5-yl)-1H-imidazo[4,5-b]pyrazin-2(3H)-one], the IC50 against mTOR and against PKCθ was above 30 µM throughout.

For `Cc1nc2[nH]c(=O)n([C@H](C)c3ccccc3)c2nc1-c1cccc2ncccc12` [Compound 69, 5-methyl-1-((R)-1-phenylethyl)-6-(quinolin-5-yl)-1H-imidazo[4,5-b]pyrazin-2(3H)-one], the concentration for half-maximal inhibition (IC50) on mTOR was above 30 µM; against PKCθ, 5.1 to 10 µM.

On to `CC(c1ccccc1)n1c(=O)[nH]c2ncc(-c3ccc4ncccc4c3)nc21` (stereo not shown) [Compound 73, 1-(1-phenylethyl)-6-(quinolin-6-yl)-1H-imidazo[4,5-b]pyrazin-2(3H)-one], for which the IC50 against mTOR is 5.1 to 10 µM; against PKCθ, above 30 µM.

For `CC(c1ccccc1)n1c(=O)[nH]c2ncc(-c3cccc(NS(C)(=O)=O)c3)nc21` (stereo not shown) [Compound 84, N-(3-(2-oxo-3-(1-phenylethyl)-2,3-dihydro-1H-imidazo[4,5-b]pyrazin-5-yl)phenyl)methanesulfonamide], the IC50 on mTOR was 0.1 to 5 µM; against PKCθ it was 10.1 to 20 µM.

As to `CC(c1ccccc1)n1c(=O)[nH]c2ncc(-c3ccc(S(C)(=O)=O)cc3)nc21` (stereo not shown) [Compound 85, 6-(4-(methylsulfonyl)phenyl)-1-(1-phenylethyl)-1H-imidazo[4,5-b]pyrazin-2(3H)-one], the IC50 against mTOR is 5.1 to 10 µM; against PKCθ it was above 30 µM.
